Calls of active or inactive are those of the source. The rule behind the calls is not given here.
Legend:
Mu-type opioid receptor [1] = molecular target: T1, Mu-type opioid receptor (Homo sapiens, UniProt P35372); assay: Agonist activity at human mu opioid receptor expressed in CHO-K1 cells coexpressing Galpha15 assessed as increase in fluorescence of [ca2+]i measured for 1.52 sec by FLIPR calcium assay; type: functional, cell-based
Mu-type opioid receptor [2] = molecular target: T1, Mu-type opioid receptor; assay: Agonist activity at human mu opioid receptor expressed in CHO-K1 cells coexpressing Galpha15 assessed as increase in fluorescence of [ca2+]i by measuring maximum efficacy measured for 1.52 sec by FLIPR calcium assay relative to control; type: functional, cell-based
Mus musculus [3] = assay: Antinociceptive activity in thermal stimulated wild type C57BL/6 mouse assessed as tail flick latency at 126.4 to 252.8 microg/kg measured at 30 to 60 mins by tail flick test; type: functional, organism-based; details: dose 126.4-252.8 µg/kg, time 30-60 min
Mu-type opioid receptor [4] = molecular target: T1, Mu-type opioid receptor; assay: Displacement of [3H]-Diprenorphine from human MOR receptor expressed in CHO-K1 cells assessed as inhibition constant measured for 1 hr by liquid scintillation counter analysis; type: cell-based
[5] = molecular target: T2, Delta-type opioid receptor (Homo sapiens, UniProt P41143); assay: Displacement of [3H]-Diprenorphine from human DOR receptor expressed in CHO-K1 cells assessed as inhibition constant measured for 1 hr by liquid scintillation counter analysis; type: cell-based
Nociceptin receptor [6] = molecular target: T3, Nociceptin receptor (Homo sapiens, UniProt P41146); assay: Displacement of [3H]-Nociceptin from human NOP receptor expressed in CHO-K1 cells assessed as inhibition constant measured for 1 hr by liquid scintillation counter analysis; type: cell-based
Mu-type opioid receptor [7] = molecular target: T1, Mu-type opioid receptor; assay: Agonist activity at human mu opioid receptor expressed in CHO-K1 cells assessed as decrease in intracellular cAMP level measured after 1 hr by LANCE ultra cAMP assay; type: functional, cell-based
Nociceptin receptor [8] = molecular target: T3, Nociceptin receptor; assay: Agonist activity at human NOP receptor expressed in CHO-K1 cells assessed as decrease in intracellular cAMP level measured after 1 hr by LANCE ultra cAMP assay; type: functional, cell-based
[9] = molecular target: T2, Delta-type opioid receptor; assay: Agonist activity at human DOR receptor expressed in CHO-K1 cells assessed as decrease in intracellular cAMP level measured after 1 hr by LANCE ultra cAMP assay; type: functional, cell-based
Mu-type opioid receptor [10] = molecular target: T1, Mu-type opioid receptor; assay: Agonist activity at human mu opioid receptor expressed in CHO-K1 cells assessed as […] beta-arrestin 2 recruitment measured after 1.5 hrs by PathHunter assay; type: functional, cell-based
Nociceptin receptor [11] = molecular target: T3, Nociceptin receptor; assay: Agonist activity at human NOP receptor expressed in CHO-K1 cells assessed as […] beta-arrestin 2 recruitment measured after 1.5 hrs by PathHunter assay; type: functional, cell-based
[12] = molecular target: T2, Delta-type opioid receptor; assay: Agonist activity at human DOR receptor expressed in CHO-K1 cells assessed as […] beta-arrestin 2 recruitment measured after 1.5 hrs by PathHunter assay; type: functional, cell-based
Nociceptin receptor [13] = molecular target: T3, Nociceptin receptor; assay: Potency index, ratio of Nociceptin EC50 to test compound EC50 for agonist activity at human NOP receptor expressed in CHO-K1 cells assessed as […] beta-arrestin 2 recruitment measured after 1.5 hrs by PathHunter assay; type: functional, cell-based
[14] = molecular target: T2, Delta-type opioid receptor; assay: Potency index, ratio of DADLE EC50 to test compound EC50 for agonist activity at human DOR receptor expressed in CHO-K1 cells assessed as […] beta-arrestin 2 recruitment measured after 1.5 hrs by PathHunter assay; type: functional, cell-based
Mu-type opioid receptor [15] = molecular target: T1, Mu-type opioid receptor; assay: Agonist activity at human mu opioid receptor expressed in CHO-K1 cells assessed as decrease in intracellular cAMP level at 0.5 uM in presence of naltrexone; type: functional, cell-based; details: filed as agonist
Nociceptin receptor [16] = molecular target: T3, Nociceptin receptor; assay: Agonist activity at human NOP receptor expressed in CHO-K1 cells assessed as decrease in intracellular cAMP level at 0.5 uM in presence of BAN ORL 24; type: functional, cell-based
[17] = molecular target: T2, Delta-type opioid receptor; assay: Agonist activity at human DOR receptor expressed in CHO-K1 cells assessed as decrease in intracellular cAMP level at 0.5 uM in presence of naltrindole; type: functional, cell-based
[18] = Drug concentration in C57BL/6 mouse plasma at 2 mg/kg, sc measured for 5 min by ICP-MS analysis; type: ADME, organism-based
[19] = Drug concentration in C57BL/6 mouse plasma at 2 mg/kg, sc measured for 60 min by ICP-MS analysis; type: ADME, organism-based
[20] = Drug concentration in C57BL/6 mouse brain at 2 mg/kg, sc measured for 5 min by ICP-MS analysis; type: ADME, organism-based; details: read-out: Ct
[21] = Drug concentration in C57BL/6 mouse brain at 2 mg/kg, sc measured for 60 min by ICP-MS analysis; type: ADME, organism-based; details: read-out: Ct
[22] = Drug concentration in C57BL/6 mouse Intestine at 2 mg/kg, sc measured for 5 min by ICP-MS analysis; type: ADME, organism-based; details: read-out: Ct
[23] = Drug concentration in C57BL/6 mouse Intestine at 2 mg/kg, sc measured for 60 min by ICP-MS analysis; type: ADME, organism-based; details: read-out: Ct
Mus musculus [24] = assay: Antinociceptive activity in thermal stimulated sc dosed C57BL/6 mouse measured at 30 to 180 mins by tail flick test; type: functional; details: time 30-180 min
Mus musculus [25] = assay: Antinociceptive activity in thermal stimulated C57BL/6 mouse at 126.4 to 252.8 microg/kg, sc measured at 30 to 180 mins by tail flick test; type: functional, organism-based; details: dose 126.4-252.8 µg/kg, time 30-180 min
Mus musculus [26] = assay: Antinociceptive activity in thermal stimulated C57BL/6 mouse assessed as tail flick latency at 126.4 to 252.8 microg/kg, sc measured at 30 to 60 mins by tail flick test; type: functional, organism-based; details: dose 126.4-252.8 µg/kg, time 30-60 min
Mus musculus [27] = assay: Antinociceptive activity in thermal stimulated MOR-knockout C57BL/6 mouse assessed as delay in flick tail at 252.8 microg/kg, sc measured after 30 mins by tail flick test; type: functional, organism-based; details: dose 252.8 µg/kg
Mus musculus [28] = assay: Antinociceptive activity in CFA-induced mechanical allodynia C57BL/6 mouse model at 126.4 to 252.8 microg/kg, sc pretreated with CFA for 2 days followed by compound addition and measured after 1 day by von frey test; type: functional, organism-based; details: dose 126.4-252.8 µg/kg
Mus musculus [29] = assay: Antinociceptive activity in CFA-induced mechanical allodynia MOR knockout C57BL/6 mouse model at 252.8 microg/kg, sc administered twice daily pretreated with CFA for 2 days followed by compound addition and measured at 3 to 7 days by von frey test; type: functional, organism-based; details: dose 252.8 µg/kg, time 3-7 day
Mus musculus [30] = assay: Antinociceptive activity in thermal stimulated C57BL/6 mouse assessed as drug tolerance at 126.4 to 252.8 microg/kg, sc administered twice per day for 5 days and measured immediately by tail flick test; type: functional, organism-based; details: dose 126.4-252.8 µg/kg, time 5.0 day
Mus musculus [31] = assay: Antinociceptive activity in C57BL/6 mouse at 252.8 microg/kg, sc measured after 5 days in presence of BAN ORL 24 by tail flick test; type: functional, organism-based; details: dose 252.8 µg/kg, time 5.0 day
Mus musculus [32] = assay: Antinociceptive activity in C57BL/6 mouse at 252.8 microg/kg, sc measured after 5 days in presence of naltrindole by tail flick test; type: functional, organism-based; details: dose 252.8 µg/kg, time 5.0 day
Mus musculus [33] = assay: Antinociceptive activity in C57BL/6 mouse assessed as drug tolerance at 252.8 microg/kg, sc administered twice per day for 6 days and measured immediately by tail flick test; type: functional, organism-based; details: dose 252.8 µg/kg, time 6.0 day
Mus musculus [34] = assay: Antinociceptive activity in morphine tolerant C57BL/6 mouse at 252.8 microg/kg, sc administered twice per day for 6 days and measured after 30 min by tail flick test; type: functional, organism-based; details: dose 252.8 µg/kg
Mus musculus [35] = assay: Induction of motivational effect in C57BL/6 mouse assessed as increase in reward behaviour at 126.4 to 252.8 microg/kg, sc administered for 4 days and measured on day 6 by CPP analysis; type: functional, organism-based; details: dose 126.4-252.8 µg/kg, time 6.0 day

T1 sequence (P35372 whole entry): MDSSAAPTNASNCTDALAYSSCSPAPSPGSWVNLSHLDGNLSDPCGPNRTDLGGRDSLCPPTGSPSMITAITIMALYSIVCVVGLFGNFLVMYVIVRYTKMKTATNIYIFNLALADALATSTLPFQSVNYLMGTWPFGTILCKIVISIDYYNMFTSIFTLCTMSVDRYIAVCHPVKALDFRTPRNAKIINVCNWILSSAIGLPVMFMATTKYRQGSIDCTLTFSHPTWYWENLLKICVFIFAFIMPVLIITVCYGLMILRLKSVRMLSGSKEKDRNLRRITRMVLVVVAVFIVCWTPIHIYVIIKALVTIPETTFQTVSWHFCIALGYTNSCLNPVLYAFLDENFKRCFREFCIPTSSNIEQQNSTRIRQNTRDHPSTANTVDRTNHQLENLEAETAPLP
T2 sequence (P41143 whole entry): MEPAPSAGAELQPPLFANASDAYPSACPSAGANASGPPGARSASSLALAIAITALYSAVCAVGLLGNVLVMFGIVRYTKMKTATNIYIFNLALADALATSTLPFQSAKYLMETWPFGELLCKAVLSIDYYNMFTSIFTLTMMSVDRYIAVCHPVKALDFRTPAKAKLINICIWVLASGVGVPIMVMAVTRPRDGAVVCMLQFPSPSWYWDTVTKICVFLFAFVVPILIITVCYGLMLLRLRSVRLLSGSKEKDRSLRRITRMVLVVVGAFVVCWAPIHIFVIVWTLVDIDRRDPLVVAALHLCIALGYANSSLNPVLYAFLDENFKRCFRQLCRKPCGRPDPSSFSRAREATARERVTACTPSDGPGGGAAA
T3 sequence (P41146 whole entry): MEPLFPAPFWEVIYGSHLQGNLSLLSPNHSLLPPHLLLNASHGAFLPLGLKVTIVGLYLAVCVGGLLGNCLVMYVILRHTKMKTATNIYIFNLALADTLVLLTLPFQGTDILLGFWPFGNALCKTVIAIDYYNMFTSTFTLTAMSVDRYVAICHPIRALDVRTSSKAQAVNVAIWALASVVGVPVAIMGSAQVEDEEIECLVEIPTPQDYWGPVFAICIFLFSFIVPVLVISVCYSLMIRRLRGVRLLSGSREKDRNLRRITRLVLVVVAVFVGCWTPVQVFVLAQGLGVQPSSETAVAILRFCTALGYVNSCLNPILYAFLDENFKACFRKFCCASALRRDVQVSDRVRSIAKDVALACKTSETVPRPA

## CN(C)C(CNC(=O)c1cc2ccccc2s1)c1cccc(F)c1 (stereo unspecified)
Mu-type opioid receptor [1]
  EC50: 1490 nM
Mu-type opioid receptor [2]; filed as agonist
  Emax: 106%

## CN(C)C(CNC(=O)c1cc2ccccc2s1)c1ccccc1 (stereo unspecified)
Mu-type opioid receptor [1]
  EC50: 3860 nM
Mu-type opioid receptor [2]; filed as agonist
  Emax: 99.5%

## CN(C)C(CNC(=O)c1sc2ccccc2c1Cl)c1ccccc1Cl (stereo unspecified)
Mu-type opioid receptor [1]
  EC50: 360 nM
Mu-type opioid receptor [2]; filed as agonist
  Emax: 93.8%

## CN(C)C(CNC(=O)c1cccs1)c1ccccc1Cl (stereo unspecified)
Mu-type opioid receptor [1]
  EC50: 400 nM
Mu-type opioid receptor [2]; filed as agonist
  Emax: 54.5%

## CN(C)C(CNC(=O)c1cc2ccccc2s1)C1CCCCC1 (stereo unspecified)
Mu-type opioid receptor [1]
  EC50: 11100 nM
Mu-type opioid receptor [2]; filed as agonist
  Emax: 91%

## Cc1cccc(C(CNC(=O)c2cc3ccccc3s2)N(C)C)c1 (stereo unspecified)
Mu-type opioid receptor [1]
  EC50: 4110 nM
Mu-type opioid receptor [2]; filed as agonist
  Emax: 116%

## CN(C)C(CNC(=O)c1cc2ccccc2s1)c1ccc(Cl)cc1 (stereo unspecified)
Mu-type opioid receptor [1]
  EC50: 1260 nM
Mu-type opioid receptor [2]; filed as agonist
  Emax: 112%

## Cc1ccc(C(CNC(=O)c2cc3ccccc3s2)N(C)C)cc1 (stereo unspecified)
Mus musculus [3]
  Activity: Active
Mu-type opioid receptor [1]
  EC50: 8170 nM
Mu-type opioid receptor [2]; filed as agonist
  Emax: 114%
Mu-type opioid receptor [4]
  Ki: 0.3 nM
[5]
  Ki: > 1 nM
Nociceptin receptor [6]
  Ki: 650 nM
Mu-type opioid receptor [7]
  EC50: 0.23 nM
Nociceptin receptor [8]
  EC50: 22 nM
[9]
  EC50: 2.13 nM
Mu-type opioid receptor [10]
  EC50: 30 nM
Nociceptin receptor [11]
  EC50: 44800 nM
[12]
  EC50: > 10000 nM
Nociceptin receptor [13]
  Ratio EC50: 2200
[14]
  Ratio EC50: 233
Mu-type opioid receptor [15]
  Activity: Active
Nociceptin receptor [16]
  Activity: inactive
[17]
  Activity: inactive
[18]
  concentration at 5 min: 191 ng/mL
[19]
  concentration at 1 h: 252 ng/mL
[20]
  concentration at 5 min: 1110 ng/mL
[21]
  concentration at 1 h: 2030 ng/mL
[22]
  concentration at 5 min: 515 ng/mL
[23]
  concentration at 1 h: 936 ng/mL
Mus musculus [24]
  Activity: Dose-Dependent Effect
  ED50: 127 mg/kg
Mus musculus [25]
  Activity: Active
Mus musculus [26]
  Activity: Active
Mus musculus [27]
  Activity: Active
Mus musculus [28]
  Activity: Active
Mus musculus [29]
  Activity: Active
Mus musculus [30]
  Activity: Active
Mus musculus [31]
  Activity: Active
Mus musculus [32]
  Activity: Active
Mus musculus [33]
  Activity: Active
Mus musculus [34]
  Activity: Active
Mus musculus [35]
  Activity: Active

## CN(C)C(CNC(=O)c1cc2ccccc2s1)c1ccc(Br)cc1 (stereo unspecified)
Mu-type opioid receptor [1]
  EC50: 150 nM
Mu-type opioid receptor [2]; filed as agonist
  Emax: 103%

## CN(C)C(CNC(=O)c1cc2ccccc2s1)c1ccc(F)cc1 (stereo unspecified)
Mu-type opioid receptor [1]
  EC50: 6.4 nM
Mu-type opioid receptor [2]; filed as agonist
  Emax: 117%

## Cc1ccc2c(Cl)c(C(=O)NCCc3ccccc3Cl)sc2c1
Mu-type opioid receptor [1]
  EC50: > 10000 nM
Mu-type opioid receptor [2]
  Emax: < 20%
